Results from ChEMBL document CHEMBL1201862, “PubChem BioAssay data set” (2004).
Activity calls are given as the source filed them. Rule as the data show it, for most assays here: actives have a measured IC50 and inactives only a lower limit.

Assays:
[1] = molecular target: T1, Sentrin-specific protease 8 (Homo sapiens, UniProt Q96LD8); test: SENP8 protease inhibitors, SAR follow-up, biochemical, luminescence (AID 504501); format: functional
T1 sequence (Q96LD8 whole entry): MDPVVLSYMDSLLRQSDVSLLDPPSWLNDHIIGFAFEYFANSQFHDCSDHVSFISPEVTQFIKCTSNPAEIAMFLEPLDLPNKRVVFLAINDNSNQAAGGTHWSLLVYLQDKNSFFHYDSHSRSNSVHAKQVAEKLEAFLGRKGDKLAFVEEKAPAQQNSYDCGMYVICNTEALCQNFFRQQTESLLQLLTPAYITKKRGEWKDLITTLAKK

[2] = molecular target: T2, Caspase-3 (Homo sapiens, UniProt P42574); test: caspase-3 inhibitors as off-family protease, SAR follow-up, selectivity assay for SENP protease inhibitor project, biochemical, luminescence, set 2 (AID 588599); format: functional
T2 sequence (P42574 whole entry): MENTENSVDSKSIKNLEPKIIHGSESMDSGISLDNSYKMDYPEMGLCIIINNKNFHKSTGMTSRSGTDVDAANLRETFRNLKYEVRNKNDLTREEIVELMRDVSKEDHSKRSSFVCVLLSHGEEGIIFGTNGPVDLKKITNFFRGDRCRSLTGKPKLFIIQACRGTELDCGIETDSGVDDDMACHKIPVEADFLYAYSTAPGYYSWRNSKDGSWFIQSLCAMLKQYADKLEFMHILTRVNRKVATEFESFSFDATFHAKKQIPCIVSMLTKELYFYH

[3] = molecular target: T1, Sentrin-specific protease 8; test: SENP8 protease inhibitors, SAR follow-up, biochemical, luminescence, set 2 (AID 588601); format: functional
[4] = molecular target: T2, Caspase-3; test: SAR Analysis of small molecule inhibitors of Sentrin-specific proteases (SENPs) using a Caspase-3 Selectivity assay. [Related pubchem assays (depositor defined):AID2540, AID2599, AID434973, AID489001]; format: functional
[5] = molecular target: T3, Sentrin-specific protease 7 (Homo sapiens, UniProt Q9BQF6); test: SENP7 protease inhibitors, SAR follow-up, biochemical, luminescence, set 2 (AID 588600); format: functional
T3 sequence (Q9BQF6 whole entry): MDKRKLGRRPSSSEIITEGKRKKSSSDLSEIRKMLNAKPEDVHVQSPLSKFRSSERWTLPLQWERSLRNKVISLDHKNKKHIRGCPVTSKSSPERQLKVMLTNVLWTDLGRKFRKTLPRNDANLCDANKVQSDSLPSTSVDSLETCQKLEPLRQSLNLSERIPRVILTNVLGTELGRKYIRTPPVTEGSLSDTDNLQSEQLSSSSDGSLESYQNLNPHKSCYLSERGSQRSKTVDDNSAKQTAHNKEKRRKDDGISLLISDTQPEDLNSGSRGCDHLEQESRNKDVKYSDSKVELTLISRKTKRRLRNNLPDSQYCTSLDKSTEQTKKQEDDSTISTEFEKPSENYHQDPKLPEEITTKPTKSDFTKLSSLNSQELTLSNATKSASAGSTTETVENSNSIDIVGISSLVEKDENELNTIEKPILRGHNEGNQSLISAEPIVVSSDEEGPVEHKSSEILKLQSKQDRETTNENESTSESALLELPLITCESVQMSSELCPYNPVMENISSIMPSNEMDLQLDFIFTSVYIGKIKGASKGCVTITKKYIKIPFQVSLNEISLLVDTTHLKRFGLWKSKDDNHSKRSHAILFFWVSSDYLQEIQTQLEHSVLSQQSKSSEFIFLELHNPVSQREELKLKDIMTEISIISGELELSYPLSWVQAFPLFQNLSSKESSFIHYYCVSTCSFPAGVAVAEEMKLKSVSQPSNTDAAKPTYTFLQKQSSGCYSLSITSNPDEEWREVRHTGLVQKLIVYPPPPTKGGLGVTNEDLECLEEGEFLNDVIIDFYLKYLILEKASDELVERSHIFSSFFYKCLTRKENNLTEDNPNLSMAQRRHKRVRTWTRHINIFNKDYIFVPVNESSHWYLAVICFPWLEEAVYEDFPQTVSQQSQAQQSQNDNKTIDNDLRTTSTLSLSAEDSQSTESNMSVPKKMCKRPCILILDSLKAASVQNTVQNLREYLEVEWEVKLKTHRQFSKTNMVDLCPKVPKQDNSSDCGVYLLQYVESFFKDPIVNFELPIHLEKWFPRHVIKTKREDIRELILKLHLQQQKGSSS

[6] = molecular target: T4, Sentrin-specific protease 6 (Homo sapiens, UniProt Q9GZR1); test: SAR Analysis of small molecule inhibitors of Sentrin-specific protease 6 (SENP6) using a Luminescent assay. [Related pubchem assays (depositor defined):AID2582, AID2599]; format: functional
T4 sequence (Q9GZR1 whole entry): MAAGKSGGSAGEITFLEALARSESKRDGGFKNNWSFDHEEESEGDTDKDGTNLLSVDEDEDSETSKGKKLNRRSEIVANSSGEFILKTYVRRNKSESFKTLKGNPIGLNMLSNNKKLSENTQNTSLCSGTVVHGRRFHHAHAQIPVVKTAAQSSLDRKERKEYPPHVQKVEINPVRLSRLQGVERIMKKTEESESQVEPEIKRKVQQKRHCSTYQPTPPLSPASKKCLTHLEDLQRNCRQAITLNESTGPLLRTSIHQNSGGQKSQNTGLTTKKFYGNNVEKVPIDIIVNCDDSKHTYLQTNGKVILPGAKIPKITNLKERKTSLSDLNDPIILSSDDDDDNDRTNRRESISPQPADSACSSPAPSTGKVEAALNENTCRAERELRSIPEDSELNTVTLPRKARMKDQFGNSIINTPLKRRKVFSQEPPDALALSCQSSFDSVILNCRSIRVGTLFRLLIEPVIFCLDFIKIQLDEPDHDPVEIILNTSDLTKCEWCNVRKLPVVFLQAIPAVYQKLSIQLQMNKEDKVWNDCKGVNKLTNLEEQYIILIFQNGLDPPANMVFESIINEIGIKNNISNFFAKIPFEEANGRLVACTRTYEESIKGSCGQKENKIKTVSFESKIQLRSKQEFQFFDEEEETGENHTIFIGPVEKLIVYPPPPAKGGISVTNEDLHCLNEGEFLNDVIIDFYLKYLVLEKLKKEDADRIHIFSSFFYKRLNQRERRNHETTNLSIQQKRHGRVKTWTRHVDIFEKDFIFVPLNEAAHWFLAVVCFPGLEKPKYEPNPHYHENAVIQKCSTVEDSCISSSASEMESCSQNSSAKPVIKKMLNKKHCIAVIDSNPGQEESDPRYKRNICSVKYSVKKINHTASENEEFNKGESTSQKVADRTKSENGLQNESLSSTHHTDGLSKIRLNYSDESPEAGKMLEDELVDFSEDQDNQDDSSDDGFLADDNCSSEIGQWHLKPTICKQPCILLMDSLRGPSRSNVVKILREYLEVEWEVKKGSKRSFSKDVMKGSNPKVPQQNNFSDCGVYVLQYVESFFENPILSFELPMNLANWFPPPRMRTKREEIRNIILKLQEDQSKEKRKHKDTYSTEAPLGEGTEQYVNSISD

[7] = molecular target: T4, Sentrin-specific protease 6; test: SENP6 protease inhibitors, SAR follow-up, biochemical, luminescence, set 2 (AID 588598); format: functional
[8] = molecular target: T3, Sentrin-specific protease 7; test: SENP7 protease inhibitors, SAR follow-up, biochemical, luminescence (AID 504497); format: functional
[9] = test system: Jurkat; test: SAR Analysis of small molecule inhibitors of […] specific antigen receptor-induced NF-kB activation in a Jurkat cell line using a luminescence assay - Set 3. [Related pubchem assays (depositor defined):AID435022, AID435025, AID465]; format: functional, cell-based; conditions: Homo sapiens
[10] = test system: HEK293; test: SAR Analysis of small molecule inhibitors of B-cell specific antigen receptor-induced NF-kB activation in a HEK-293T cell line using a luminescence assay - Set 2. [Related pubchem assays (depositor defined):AID435022, AID435025, AID489021]; format: functional, cell-based; conditions: Homo sapiens
[11] = test system: HEK293; test: cytotoxicity in HEK293T NF-kB-Luc cells, SAR follow-up, cytotoxicity control for NF-kB activator project, cell-based, resazurin fluorescence (AID 493251); format: functional; conditions: Homo sapiens
[12] = molecular target: T5, Short transient receptor potential channel 4 (Mus musculus, UniProt Q9QUQ5); test: mouse TRPC4 channel inhibitors, dose response, cell-based, HEK293 TRPC4/mu-opioid, Fluo-4 calcium (AID 434942); format: functional;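 also: potency of inhibitors blocking the TRPC4 calcium response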
T5 sequence (Q9QUQ5 whole entry): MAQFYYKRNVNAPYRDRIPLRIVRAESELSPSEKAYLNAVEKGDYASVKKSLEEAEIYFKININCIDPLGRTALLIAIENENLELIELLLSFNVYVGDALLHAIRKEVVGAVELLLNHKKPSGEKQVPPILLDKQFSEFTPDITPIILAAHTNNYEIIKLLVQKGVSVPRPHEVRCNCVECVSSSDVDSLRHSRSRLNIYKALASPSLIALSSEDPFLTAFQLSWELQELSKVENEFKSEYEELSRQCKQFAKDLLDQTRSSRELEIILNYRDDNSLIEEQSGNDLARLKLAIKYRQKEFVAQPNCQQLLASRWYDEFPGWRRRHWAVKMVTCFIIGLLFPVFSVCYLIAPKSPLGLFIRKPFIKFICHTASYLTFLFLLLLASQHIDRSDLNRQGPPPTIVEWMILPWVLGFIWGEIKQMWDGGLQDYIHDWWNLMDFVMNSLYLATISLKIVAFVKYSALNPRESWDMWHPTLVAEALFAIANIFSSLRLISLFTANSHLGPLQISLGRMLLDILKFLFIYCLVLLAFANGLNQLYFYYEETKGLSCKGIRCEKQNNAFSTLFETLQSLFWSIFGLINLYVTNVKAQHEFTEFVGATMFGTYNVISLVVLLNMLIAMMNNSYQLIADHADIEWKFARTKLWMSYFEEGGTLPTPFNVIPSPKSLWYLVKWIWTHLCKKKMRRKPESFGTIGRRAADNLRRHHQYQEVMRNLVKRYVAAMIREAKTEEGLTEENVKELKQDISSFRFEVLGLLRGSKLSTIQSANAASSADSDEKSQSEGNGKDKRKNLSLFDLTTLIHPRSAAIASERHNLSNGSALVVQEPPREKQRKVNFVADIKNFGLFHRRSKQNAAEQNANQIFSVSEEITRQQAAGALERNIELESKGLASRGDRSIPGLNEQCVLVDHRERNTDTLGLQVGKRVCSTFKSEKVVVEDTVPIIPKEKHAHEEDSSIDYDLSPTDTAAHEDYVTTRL

[13] = molecular target: Protein disulfide-isomerase (Homo sapiens, UniProt P07237); test: PDI inhibitors, insulin aggregation turbidity, dose response, biochemical, absorbance, cherry-picked samples (AID 602350); format: functional
Sequence of Protein disulfide-isomerase (P07237 whole entry): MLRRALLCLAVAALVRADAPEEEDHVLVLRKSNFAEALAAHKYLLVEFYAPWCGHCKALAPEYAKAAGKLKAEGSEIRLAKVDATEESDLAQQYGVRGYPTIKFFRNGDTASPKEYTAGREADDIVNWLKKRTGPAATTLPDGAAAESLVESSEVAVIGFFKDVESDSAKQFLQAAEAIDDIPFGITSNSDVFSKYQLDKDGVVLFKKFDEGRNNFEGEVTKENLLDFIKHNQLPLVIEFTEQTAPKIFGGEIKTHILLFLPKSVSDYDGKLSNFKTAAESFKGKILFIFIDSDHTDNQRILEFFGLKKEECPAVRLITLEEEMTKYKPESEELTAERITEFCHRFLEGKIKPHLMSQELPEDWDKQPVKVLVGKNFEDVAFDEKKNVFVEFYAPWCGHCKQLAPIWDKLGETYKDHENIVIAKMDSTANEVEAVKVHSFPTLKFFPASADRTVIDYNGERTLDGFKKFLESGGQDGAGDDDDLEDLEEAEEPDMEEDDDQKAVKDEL

[14] = test system: Candida albicans; test: growth inhibition of resistant C. albicans, dose response, CaCi-8 strain, fluconazole, dry powder, set 4 (AID 488950); format: functional, organism-based

## Fc1ccc(/C=C/c2nc(-c3ccccc3)no2)cc1
[1]
  IC50: 16 µM (active)
[2]
  IC50: 3.02 µM (active)
[3]
  IC50: 1.81 µM (active)
[4]
  IC50: 5 µM (active)
[5]
  IC50: 2.09 µM (active)
[6]
  IC50: 2.1 µM (active)
[7]
  IC50: 1.83 µM (active)
[8]
  IC50: 1.7 µM (active)

## CCOc1ccc(-c2nc(CSCC(=O)NC(C)C)c(C)o2)cc1
[9]
  IC50: > 80 µM (inactive)
[10]
  IC50: 61.7 µM (inactive)
[11]
  IC50: > 80 µM (inactive)

## CC(Cc1ccccc1Sc1ccccc1O)N(C)C (centres undefined)
[12]
  EC50: 0.944 µM (active)
[13]
  AC50: 15.9 µM (active)

## O=C(c1ccc(Cl)cc1)N1CCN(c2cccc(C(F)(F)F)n2)CC1
[14]
  AC50: 172 µM (active)
